Test results published in patent US6426405B2, “Neurotransmitter transporter SC6” (SmithKline Beecham P.L.C., priority 1998, dated 2002).

Target: T1, SC6 (GlyT-2 transporter) (Homo sapiens, UniProt Q9Y345)
T1 sequence (Q9Y345 1-797 F124S/A162G/Q184R/D463N/I735T/V751A): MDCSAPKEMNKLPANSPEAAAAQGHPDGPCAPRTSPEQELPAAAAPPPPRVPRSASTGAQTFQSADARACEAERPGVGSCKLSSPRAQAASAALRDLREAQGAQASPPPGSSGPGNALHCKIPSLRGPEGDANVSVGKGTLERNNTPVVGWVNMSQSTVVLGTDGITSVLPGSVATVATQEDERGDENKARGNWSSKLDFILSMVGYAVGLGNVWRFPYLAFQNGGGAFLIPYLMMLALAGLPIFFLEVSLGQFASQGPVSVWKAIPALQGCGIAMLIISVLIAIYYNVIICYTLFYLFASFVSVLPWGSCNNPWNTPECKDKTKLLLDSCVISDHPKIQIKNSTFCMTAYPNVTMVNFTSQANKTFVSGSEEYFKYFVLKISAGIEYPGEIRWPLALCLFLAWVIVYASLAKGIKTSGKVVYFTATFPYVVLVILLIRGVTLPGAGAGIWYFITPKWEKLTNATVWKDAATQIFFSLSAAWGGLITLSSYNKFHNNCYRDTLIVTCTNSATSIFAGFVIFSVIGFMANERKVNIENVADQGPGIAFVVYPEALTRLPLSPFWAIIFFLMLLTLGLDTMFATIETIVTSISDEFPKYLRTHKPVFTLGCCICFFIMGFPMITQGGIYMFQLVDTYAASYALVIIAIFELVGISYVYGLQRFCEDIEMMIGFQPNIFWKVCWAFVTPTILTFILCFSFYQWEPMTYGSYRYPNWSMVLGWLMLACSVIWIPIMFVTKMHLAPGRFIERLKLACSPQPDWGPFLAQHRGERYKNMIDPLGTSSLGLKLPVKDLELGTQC
Assay: [3H]-glycine uptake assay in HEK-293 cells transiently transfected with SC6
Details: 1 mM test substance, 1 μM [3H]-glycine, alanine (5 mM) present, HEK-293 cells transfected with SC6, 37° C.

Compound	effect on [3H]-glycine uptake
NCC(=O)O [glycine]	almost totally blocked
CNCC(=O)O [sarcosine]	not significantly affected
